Measured values published in the Kinase Knowledgebase extract (Sharma et al. 2016).

Target: PIK3CA (human) (UniProt P42336)
Assay: Assessment of PIK3CA Kinase Activity

PIK3CA (human), sequence (P42336 whole entry, looked up): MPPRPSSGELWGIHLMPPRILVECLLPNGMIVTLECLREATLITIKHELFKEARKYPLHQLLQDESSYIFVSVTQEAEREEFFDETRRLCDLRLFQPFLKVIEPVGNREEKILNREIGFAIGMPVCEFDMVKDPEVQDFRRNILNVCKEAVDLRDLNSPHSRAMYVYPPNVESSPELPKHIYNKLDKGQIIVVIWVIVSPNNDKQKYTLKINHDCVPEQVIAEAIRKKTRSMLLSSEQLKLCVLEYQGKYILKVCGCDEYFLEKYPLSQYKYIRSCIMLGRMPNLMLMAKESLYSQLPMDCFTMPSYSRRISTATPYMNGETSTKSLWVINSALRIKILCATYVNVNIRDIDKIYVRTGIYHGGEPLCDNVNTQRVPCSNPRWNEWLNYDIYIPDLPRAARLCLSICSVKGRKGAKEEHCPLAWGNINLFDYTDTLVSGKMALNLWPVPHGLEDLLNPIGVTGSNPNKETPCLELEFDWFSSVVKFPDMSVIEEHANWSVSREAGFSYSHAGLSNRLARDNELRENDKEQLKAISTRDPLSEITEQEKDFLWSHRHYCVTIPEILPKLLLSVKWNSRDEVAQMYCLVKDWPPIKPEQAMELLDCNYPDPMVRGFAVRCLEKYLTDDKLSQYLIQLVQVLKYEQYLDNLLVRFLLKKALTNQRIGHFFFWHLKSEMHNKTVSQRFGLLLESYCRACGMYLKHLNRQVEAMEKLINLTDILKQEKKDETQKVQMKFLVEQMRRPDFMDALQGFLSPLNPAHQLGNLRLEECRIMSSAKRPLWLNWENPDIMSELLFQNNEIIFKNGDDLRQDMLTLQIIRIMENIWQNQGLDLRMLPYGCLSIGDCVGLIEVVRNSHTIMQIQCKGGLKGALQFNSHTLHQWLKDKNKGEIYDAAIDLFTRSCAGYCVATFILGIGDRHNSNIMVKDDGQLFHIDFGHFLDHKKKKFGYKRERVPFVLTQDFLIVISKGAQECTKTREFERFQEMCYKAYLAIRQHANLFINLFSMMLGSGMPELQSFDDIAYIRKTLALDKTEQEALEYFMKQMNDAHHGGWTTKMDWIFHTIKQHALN

Row | Structure (SMILES) | IC50
1 | O=C(CO)N1CCC(c2ccc3c(c2)-n2nc(-c4ncnn4CC(F)(F)F)cc2CCO3)CC1 | < 1 µM
2 | CC(C)n1ncnc1-c1cn2c(n1)-c1cnc(N3CCN(CC(=O)N(C)C)CC3)cc1OCC2 | < 1 µM
3 | CC(C)NC(=O)CN1CCN(c2cc3c(cn2)-c2nc(-c4ncnn4C(C)C)cn2CCO3)CC1 | < 1 µM
4 | CC(C)n1ncnc1-c1cc2n(n1)-c1cc(C(=O)N3CCC(O)CC3)ccc1OCC2 | < 1 µM
5 | OCCn1cc(-c2ccc3c(c2)OCCn2cc(-c4ncnn4CC(F)(F)F)nc2-3)cn1 | < 1 µM
6 | CC(C)n1ncnc1-c1cc2n(n1)-c1cc(CN3CCNC(=O)C3)ccc1OCC2 | < 1 µM
7 | CC(C)n1ncnc1-c1cn2c(n1)-c1ccc(O[C@@H](CO)C(N)=O)cc1OCC2 | < 1 µM
8 | CC(C)n1ncnc1-c1cn2c(n1)-c1cnc(N3CCC(C(N)=O)CC3)cc1OCC2 | < 1 µM
9 | CC(C)n1ncnc1-c1cn2c(n1)-c1ccc(C3=CCN(C)CC3C(N)=O)cc1OCC2 (stereo unspecified) | < 1 µM
10 | CS(=O)(=O)c1ccccc1CNc1cc2c(cn1)-c1nc(-c3ncnn3-c3ccc(F)cc3F)cn1CCO2 | < 1 µM
11 | CC(C)n1ncnc1-c1cn2c(n1)-c1ccc(C3CN(C(=O)C4(N)CC4)C3)cc1OCC2 | < 1 µM
12 | CC(C)n1ncnc1-c1cn2c(n1)-c1cnc(O[C@H](C)C(N)=O)cc1OCC2 | < 1 µM
13 | CC(C)n1ncnc1-c1cn2c(n1)-c1ccc(CCS(N)(=O)=O)cc1OCC2 | < 1 µM
14 | Cc1nc(-c2cn3c(n2)-c2cnc(NCC(=O)O)cc2OCC3)n(C(C)C)n1 | < 1 µM
15 | Clc1ccc(-c2ccc3c(c2)OCCn2cc(-c4ncnn4-c4ccccc4Cl)nc2-3)cc1 | < 1 µM
16 | CC(C)n1ncnc1-c1cn2c(n1)-c1ccc(-c3ccccc3C(N)=O)cc1OCC2 | < 1 µM
17 | CC(C)n1ncnc1-c1cn2c(n1)-c1cnc(NCc3ccn[nH]3)cc1OCC2 | < 1 µM
18 | CC(C)n1ncnc1-c1cn2c(n1)-c1ccc(=O)[nH]c1OCC2 | < 1 µM
19 | CC(C)[C@H](Oc1ccc2c(c1)OCCn1cc(-c3ncnn3CC(F)(F)F)nc1-2)C(N)=O | < 1 µM
20 | CC(C)n1nc(N)nc1-c1cn2c(n1)-c1cc(C(F)(F)F)ccc1OCC2 | < 1 µM
21 | Cc1nc(-c2cn3c(n2)-c2ccc([C@H]4CCCN4C(N)=O)cc2OCC3)n(C(C)C)n1 | < 1 µM
22 | Cc1nc(-c2cn3c(n2)-c2ccc(C4CCN(C(C)(C)CO)CC4)cc2OCC3)n(C(C)C)n1 | < 1 µM
23 | CC(C)n1ncnc1-c1cn2c(n1)-c1cc(-c3ccc(Cl)cc3)ccc1OCC2 | < 1 µM
24 | COC(=O)c1ccc2c(c1)OCCn1cc(-c3cccc(C(C)C)c3)nc1-2 | < 1 µM

Row | Structure (SMILES) | IC50
25 | COC(=O)C(C)(C)n1cc(-c2ccc3c(c2)OCCn2cc(-c4nc(C)nn4C(C)C)nc2-3)cn1 | < 1 µM
26 | Fc1ccc(-n2ncnc2-c2cn3c(n2)-c2cnc(NCc4ncc[nH]4)cc2OCC3)c(F)c1 | < 1 µM
27 | O=c1[nH]cccc1-c1ccc2c(c1)-c1nc(-c3ncnn3CC(F)(F)F)cn1CCO2 | < 1 µM
28 | CC(C)CC(Oc1ccc2c(c1)OCCn1cc(-c3ncnn3C(C)C)nc1-2)C(N)=O (stereo unspecified) | < 1 µM
29 | CC(C)N1CCC(c2ccc3c(c2)OCCn2cc(-c4ncnn4C(C)C)nc2-3)C(C(N)=O)C1 (stereo unspecified) | < 1 µM
30 | Cc1nc(-c2cn3c(n2)-c2ccc(C4CCN(CC(=O)NC(C)C)CC4)cc2OCC3)n(C(C)C)n1 | < 1 µM
31 | CC(C)n1ncnc1-c1cn2c(n1)-c1ccc(NCC(N)=O)cc1OCC2 | < 1 µM
32 | Cc1nc(-c2cn3c(n2)-c2cnc(NCC(N)=O)cc2OCC3)n(C(C)C)n1 | < 1 µM
33 | CC(C)n1nccc1-c1cn2c(n1)-c1cnc(N3CCC[C@H]3C(N)=O)cc1OCC2 | < 1 µM
34 | Cc1nc(-c2cn3c(n2)-c2cnc(N4CCCC4C4CCCCN4C)cc2OCC3)n(CC(F)(F)F)n1 (stereo unspecified) | < 1 µM
35 | Nc1nc(-c2cn3c(n2)-c2cc(-c4ccc(Cl)cc4)ccc2OCC3)n(-c2ccccc2Cl)n1 | < 1 µM
36 | CC(=O)Nc1ccc(-c2ccc3c(c2)OCCn2cc(-c4nc(C)nn4C(C)C)nc2-3)cn1 | < 1 µM
37 | CC(=O)N1CC(c2ccc3c(c2)-n2nc(-c4ncnn4C(C)C)cc2CCO3)C1 | < 1 µM
38 | CC(C)n1ncnc1-c1cn2c(n1)-c1ccc([C@H](C)C(N)=O)cc1OCC2 | < 1 µM
39 | CC(C)n1ncnc1-c1cn2c(n1)-c1cc(C(N)=O)ccc1OCC2 | < 1 µM
40 | Cc1ncc(-c2ccc3c(c2)OCCn2cc(-c4ncnn4C(C)C)nc2-3)n1C | < 1 µM
41 | Cc1nc(-c2cn3c(n2)-c2ccc([C@@H]4CCCN4C(N)=O)cc2OCC3)n(C(C)C)n1 | < 1 µM
42 | Cc1nc(-c2cn3c(n2)-c2ccc(C4CCN(C(C)(C)C(N)=O)CC4)cc2OCC3)n(C(C)C)n1 | < 1 µM
43 | CONC(=O)c1ccc2c(c1)OCCn1cc(-c3ncnn3C(C)C)nc1-2 | < 1 µM
44 | CC(C)n1ncnc1-c1cn2c(n1)-c1cc(-c3cncnc3)ccc1OCC2 | < 1 µM
45 | CC(C)n1ncnc1-c1cn2c(n1)-c1ccc(OCC(N)=O)cc1OCC2 | < 1 µM
46 | Cc1nc(-c2cn3c(n2)-c2ccc(N4CCC[C@H]4C(N)=O)cc2OCC3)n(CC(F)(F)F)n1 | < 1 µM
47 | CNC(=O)CN1CCC(c2ccc3c(c2)OCCn2cc(-c4nc(C)nn4C(C)C)nc2-3)CC1 | < 1 µM
48 | CS(=O)(=O)CCN1CCC(c2ccc3c(c2)-c2nn(-c4ncnn4-c4ccc(F)cc4F)cc2CCO3)CC1 | < 1 µM

Row | Structure (SMILES) | IC50
49 | CC(C)n1ncnc1-c1cn2c(n1)-c1ccc(C3CCN(CCS(C)(=O)=O)CC3)cc1OCC2 | < 1 µM
50 | NC(=O)CNc1cc2c(cn1)-c1nc(-c3ncnn3CC(F)(F)F)cn1CCO2 | < 1 µM
51 | COCc1nc(-c2cn3c(n2)-c2ccccc2OCC3)n(C(C)C)n1 | < 1 µM
52 | CC(C)n1ncnc1-c1cc2n(n1)-c1cc(C3CN(CCO)C3)ccc1OCC2 | < 1 µM
53 | CC(C)N1CCC(c2ccc3c(c2)OCCn2cc(-c4ncnn4C(C)C)nc2-3)CC1 | < 1 µM
54 | CC(Sc1ccc2c(c1)OCCn1cc(-c3ncnn3C(C)C)nc1-2)C(N)=O (stereo unspecified) | < 1 µM
55 | Cc1nc(-c2cn3c(n2)-c2ccc(-c4cnn(C5CN(C(=O)[C@H](C)O)C5)c4)cc2OCC3)n(C(C)C)n1 | < 1 µM
56 | CC(C)n1ncnc1-c1cn2c(n1)-c1ccc(C3CCN(C(C)(C)CO)CC3)cc1OCC2 | < 1 µM
57 | CC(C)n1ncnc1-c1cn2c(n1)-c1cc(-c3ccc[nH]c3=O)ncc1OCC2 | < 1 µM
58 | Cc1nc(-c2cn3c(n2)-c2cc(-c4cnn(C)c4)ccc2OCC3)n(C(C)C)n1 | < 1 µM
59 | Cc1nc(-c2cn3c(n2)-c2ccc(F)cc2OCC3)n(C(C)C)n1 | < 1 µM
60 | CC(C)n1ncnc1-c1cn2c(n1)-c1ccc(-c3ccccc3S(C)(=O)=O)cc1OCC2 | < 1 µM
61 | CC(C)n1ncnc1-c1cn2c(n1)-c1cnc(N)cc1OCC2 | < 1 µM
62 | CNC(=O)CN1CCN(c2ccc3c(n2)OCCn2cc(-c4ncnn4C(C)C)nc2-3)CC1 | < 1 µM
63 | CC(C)n1ncnc1-c1cn2c(n1)-c1cnc(N3CC[C@@H](O)[C@H]3C(N)=O)cc1OCC2 | < 1 µM
64 | C[C@@H](Oc1ccc2c(c1)OCCn1cc(-c3ncnn3CC(F)(F)F)nc1-2)C(N)=O | < 1 µM
65 | CC(C)n1ncnc1-c1cn2c(n1)-c1ccc(C3CN(C(C)(C)C(N)=O)C3)cc1OCC2 | < 1 µM
66 | CC(C)n1nc(N)nc1-c1cn2c(n1)-c1cc(-c3cncnc3)ccc1OCC2 | < 1 µM
67 | Nc1nc(-c2cn3c(n2)-c2cc(C4CC4)ccc2OCC3)n(CC(F)(F)F)n1 | < 1 µM
68 | CC(C)n1ncnc1-c1cn2c(n1)-c1ccc(C3CCN(C(=O)C(C)(C)O)CC3)cc1OCC2 | < 1 µM
69 | COc1ccc2c(c1)OCCn1cc(-c3nc(C)nn3C(C)C)nc1-2 | < 1 µM
70 | Cc1nc(-c2cn3c(n2)-c2ccc(C4CCN(CCO)CC4)cc2OCC3)n(C(C)C)n1 | < 1 µM
71 | CC(C)n1ncnc1-c1cn2c(n1)-c1cnc(N3CCC[C@@H]3C(N)=O)cc1OCC2 | < 1 µM
72 | CC(C)n1ncnc1-c1cc2n(n1)-c1cc(C3CN(CC(N)=O)C3)ccc1OCC2 | < 1 µM

Row | Structure (SMILES) | IC50
73 | CNC(=O)c1ccc2c(c1)OCCn1cc(-c3ncnn3-c3ccccc3Cl)nc1-2 | < 1 µM
74 | CC(C)n1ncnc1-c1cn2c(n1)-c1cnc(N3CC=C[C@@H]3C(N)=O)cc1OCC2 | < 1 µM
75 | CC(C)n1ncnc1-c1cn2c(n1)-c1ccc(C3CCN(CC(N)=O)CC3)cc1OCC2 | < 1 µM
76 | CC(C)n1nc(N)nc1-c1cn2c(n1)-c1ccc(-c3cnn(CC(C)(C)O)c3)cc1OCC2 | < 1 µM
77 | COc1ccc2c(c1)OCCn1cc(-c3ncnn3C(C)C)nc1-2 | < 1 µM
78 | N#Cc1ccc2c(c1)OCCn1cc(-c3nc(N)nn3CC(F)(F)F)nc1-2 | < 1 µM
79 | CC(CO)Nc1cc2c(cn1)-c1nc(-c3ncnn3CC(F)(F)F)cn1CCO2 (stereo unspecified) | < 1 µM
80 | C[C@H](Oc1ccc2c(c1)OCCn1cc(-c3ncnn3-c3ccc(F)cc3F)nc1-2)C(N)=O | < 1 µM
81 | Cc1nc(-c2cn3c(n2)-c2ccc(OC4CCC4)cc2OCC3)n(C(C)C)n1 | < 1 µM
82 | CS(=O)(=O)CCN1CCC(c2ccc3c(c2)-n2nc(-c4ncnn4CC(F)(F)F)cc2CCO3)CC1 | < 1 µM
83 | Clc1ccccc1-n1ncnc1-c1cn2c(n1)-c1cc(-c3cncnc3)ccc1OCC2 | < 1 µM
84 | CC(C)n1ncnc1-c1cc2n(n1)-c1cc(C3CN(CCS(C)(=O)=O)C3)ccc1OCC2 | < 1 µM
85 | Cc1nc(-c2cn3c(n2)-c2ccc(-c4cnn(C)c4)cc2OCC3)n(C(C)C)n1 | < 1 µM
86 | CC(C)n1ncnc1-c1cn2c(n1)-c1ccc(-c3cncn3CCO)cc1OCC2 | < 1 µM
87 | CC(C)n1ncnc1-c1cn2c(n1)-c1ccc(N3CC(N)(CO)C3)cc1OCC2 | < 1 µM
88 | CC(C)n1ncnc1-c1cn2c(n1)-c1ccc(-c3cn(CC(C)(C)O)cn3)cc1OCC2 | < 1 µM
89 | CC(C)n1ncnc1-n1cc2c(n1)-c1ccc(-c3cn[nH]c3)cc1OCC2 | < 1 µM
90 | CC(C)n1ncnc1-c1cc2n(n1)-c1cc(C3CN(Cc4ccncc4)C3)ccc1OCC2 | < 1 µM
91 | CC(C)Oc1ccc2c(c1)OCCn1cc(-c3ncnn3C(C)C)nc1-2 | < 1 µM
92 | NC(=O)C1(Oc2ccc3c(c2)OCCn2cc(-c4ncnn4CC(F)(F)F)nc2-3)CC1 | < 1 µM
93 | CC(C)n1ncnc1-c1cn2c(n1)-c1cnc(O[C@@H](C)C(N)=O)cc1OCC2 | < 1 µM
94 | NC(=O)[C@H](CO)Oc1ccc2c(c1)OCCn1cc(-c3ncnn3CC(F)(F)F)nc1-2 | < 1 µM
95 | CNC(=O)CN1CCC(c2ccc3c(c2)OCCn2cc(-c4ncnn4C(C)C)nc2-3)CC1 | < 1 µM
96 | CC(C)n1ncnc1-c1cc2n(n1)-c1cc(C(=O)NCC(C)(C)O)ccc1OCC2 | < 1 µM
